Laboratory results as given in the supplement of paper PMC10307832.

What was measured:
Experiment in all cases: relative viability (nuclei count vs DMSO), 5 days (fraction); higher = more cells survive
Omipalisib = compound: COc1ncc(-c2ccc3nccc(-c4ccnnc4)c3c2)cc1NS(=O)(=O)c1ccc(F)cc1F [Omipalisib]
Summary of the method: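 Lung cancer cell lines were seeded into 1536-well plates, kept overnight at 37 °C and pinned with five library-drug doses (not always all listed) spaced by √10. After 5 days, nuclei were Hoechst-stained, imaged at 4× and counted with MetaXpress. Viability is treated-well nuclei over vehicle-well nuclei, taken as a median across plates. Plates needed control CV below 25% and at least one doubling.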

Omipalisib + Palbociclib = compound: COc1ncc(-c2ccc3nccc(-c4ccnnc4)c3c2)cc1NS(=O)(=O)c1ccc(F)cc1F [Omipalisib] + CC(=O)c1c(C)c2cnc(Nc3ccc(N4CCNCC4)cn3)nc2n(C2CCCC2)c1=O [Palbociclib] (partner 0.5 µM)
Summary of the method: (§1)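 After 5 days of treatment, lung cancer cells in 1536-well plates were fixed and stained in a single step (final 0.05% Triton X-100, 1% formaldehyde, 1 ug/ml Hoechst) and their nuclei counted on 4× images. Treatment had been applied by pin tool the day after seeding as one drug alone or as a fixed anchor-drug dose with five library-drug doses (not always all listed) in √10 steps. Relative viability is the nuclei count of treated wells divided by that of vehicle wells, and values are medians of duplicate plates.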

Omipalisib + Lapatinib = compound: COc1ncc(-c2ccc3nccc(-c4ccnnc4)c3c2)cc1NS(=O)(=O)c1ccc(F)cc1F [Omipalisib] + CS(=O)(=O)CCNCc1ccc(-c2ccc3ncnc(Nc4ccc(OCc5cccc(F)c5)c(Cl)c4)c3c2)o1 [Lapatinib] (partner 2 µM)
Summary of the method: as §1

Omipalisib + Pictilisib = compound: COc1ncc(-c2ccc3nccc(-c4ccnnc4)c3c2)cc1NS(=O)(=O)c1ccc(F)cc1F [Omipalisib] + CS(=O)(=O)N1CCN(Cc2cc3nc(-c4cccc5[nH]ncc45)nc(N4CCOCC4)c3s2)CC1 [Pictilisib] (partner 1 µM)
Summary of the method: as §1

Omipalisib + Tozasertib = compound: COc1ncc(-c2ccc3nccc(-c4ccnnc4)c3c2)cc1NS(=O)(=O)c1ccc(F)cc1F [Omipalisib] + Cc1cc(Nc2cc(N3CCN(C)CC3)nc(Sc3ccc(NC(=O)C4CC4)cc3)n2)n[nH]1 [Tozasertib] (partner 0.1 µM)
Summary of the method: as §1

Omipalisib + Dasatinib = compound: COc1ncc(-c2ccc3nccc(-c4ccnnc4)c3c2)cc1NS(=O)(=O)c1ccc(F)cc1F [Omipalisib] + Cc1nc(Nc2ncc(C(=O)Nc3c(C)cccc3Cl)s2)cc(N2CCN(CCO)CC2)n1 [Dasatinib] (partner 0.075 µM)
Summary of the method: as §1

Cell Line | relative viability (Omipalisib; 0.0003 µM) | relative viability (Omipalisib; 0.003 µM) | relative viability (Omipalisib; 0.03 µM) | relative viability (Omipalisib + Palbociclib; first compound 0.0003 µM) | relative viability (Omipalisib + Palbociclib; first compound 0.003 µM) | relative viability (Omipalisib + Palbociclib; first compound 0.03 µM) | relative viability (Omipalisib + Lapatinib; first compound 0.0003 µM) | relative viability (Omipalisib + Lapatinib; first compound 0.003 µM) | relative viability (Omipalisib + Lapatinib; first compound 0.03 µM) | relative viability (Omipalisib + Pictilisib; first compound 0.0003 µM) | relative viability (Omipalisib + Pictilisib; first compound 0.003 µM) | relative viability (Omipalisib + Pictilisib; first compound 0.03 µM) | relative viability (Omipalisib + Tozasertib; first compound 0.0003 µM) | relative viability (Omipalisib + Tozasertib; first compound 0.003 µM) | relative viability (Omipalisib + Tozasertib; first compound 0.03 µM) | relative viability (Omipalisib + Dasatinib; first compound 0.0003 µM) | relative viability (Omipalisib + Dasatinib; first compound 0.003 µM) | relative viability (Omipalisib + Dasatinib; first compound 0.03 µM)
NCI-H2347 | 0.972 | 0.978 | 0.579 | 0.393 | 0.432 | 0.4 | 0.855 | 0.902 | 0.81 | 0.682 | 0.612 | 0.449 | 0.66 | 0.378 | 0.211 | 0.286 | 0.253 | 0.26
NCI-H2405 | 0.982 | 0.681 | 0.351 | 0.507 | 0.392 | 0.312 | 0.949 | 0.6 | 0.303 | 0.433 | 0.389 | 0.355 | 0.76 | 0.648 | 0.359 | 0.213 | 0.204 | 0.166
NCI-H3122 | 0.971 | 0.956 | 0.538 | 0.168 | 0.153 | 0.144 | 1.03 | 1.05 | 0.786 | 0.538 | 0.472 | 0.475 | 0.348 | 0.26 | 0.172 | 0.641 | 0.0596 | 0.315
PC-3 [JPC-3] | 1.01 | 1.07 | 0.912 | 0.547 | 0.527 | 0.534 | 0.457 | 0.367 | 0.318 | 0.816 | 0.766 | 0.689 | 1.01 | 0.856 | 0.625 | 0.942 | 0.917 | 0.726
PC-14 | 1.05 | 1.05 | 0.795 | 0.521 | 0.614 | 0.327 | 0.308 | 0.228 | 0.162 | 0.749 | 0.619 | 0.383 | 0.672 | 0.674 | 0.411 | 0.31 | 0.237 | 0.079
RERF-LC-KJ | 0.942 | 0.733 | 0.571 | 1.04 | 0.846 | 0.555 | 0.773 | 0.572 | 0.632 | 0.488 | 0.463 | 0.397 | 0.463 | 0.525 | 0.382 | 0.757 | 0.509 | 0.407
SK-LU-1 | 0.914 | 0.778 | 0.569 | 0.387 | 0.329 | 0.306 | 0.89 | 0.724 | 0.493 | 0.685 | 0.504 | 0.511 | 0.339 | 0.301 | 0.237 | 0.175 | 0.121 | 0.109
SK-MES-1 | 0.927 | 0.607 | 0.452 | 0.273 | 0.271 | 0.261 | 0.447 | 0.308 | 0.364 | 0.423 | 0.318 | 0.347 | 0.901 | 0.875 | 0.53 | 0.316 | 0.174 | 0.136
SW 1573 | 0.731 | 0.713 | 0.492 | 0.335 | 0.325 | 0.191 | 0.905 | 0.786 | 0.638 | 0.495 | 0.388 | 0.341 | 0.171 | 0.146 | 0.109 | 0.165 | 0.331 | 0.101
UMC-11 | 0.886 | 0.643 | 0.823 | 0.332 | 0.272 | 0.299 | 0.836 | 0.531 | 0.738 | 0.702 | 0.425 | 0.67 | 0.217 | 0.209 | 0.22 | 0.445 | 0.455 | 0.422
